Laboratory results published in ChEMBL document CHEMBL1158536, “How well can the Caco-2/Madin-Darby canine kidney models predict effective human jejunal permeability?” (J Med Chem, 2010).

Key:
[1] = Absolute bioavailability in human; assay type: ADME, organism-based; details: in vivo
[2] = Dissociation constant, pKa of the compound; assay type: physicochemical
[3] = Octanol-water partition coefficient, log P of the compound; assay type: physicochemical
[4] = caco-2
clinical = details: human
[5] = human

Structure (SMILES) | bioavailability [1] | pKa [2] | logP ([3]; read-out: logP) | Daq [4] | Papp (clinical) | permeability [5] | logP [3]
O=c1c(O[C@@H]2O[C@H](CO)[C@@H](O)[C@H](O)[C@H]2O)c(-c2ccc(O[C@@H]3O[C@H](CO)[C@@H](O)[C@H](O)[C@H]3O)c(O)c2)oc2cc(O)cc(O)c12 | 60% | 6.9 | 3.24 | 6.1 ×10⁻⁶ cm2/s | 890 ×10⁻⁶ cm/s | – | –
CCOC(=O)[C@H](CCc1ccccc1)N[C@@H](C)C(=O)N1CCC[C@H]1C(=O)O | 51% | 2.92 | -1.39 | 6.7 ×10⁻⁶ cm2/s | 157 ×10⁻⁶ cm/s | – | –
COc1ccc(CCN(C)CCCC(C#N)(c2ccc(OC)c(OC)c2)C(C)C)cc1OC (stereo not given) | 84% | – | – | – | – | – | –
CC(=O)Nc1ccc(O)cc1 [ACETAMINOPHEN] | 85% | 9.63 | – | 10.2 ×10⁻⁶ cm2/s | – | 1.76 ×10⁻⁴ cm/s | –
N=C(N)NC(=O)c1nc(Cl)c(N)nc1N [AMILORIDE] | 50% | – | -0.26 | 8.4 ×10⁻⁶ cm2/s | 163 ×10⁻⁶ cm/s | – | –
CC1(C)S[C@@H]2[C@H](NC(=O)[C@H](N)c3ccc(O)cc3)C(=O)N2[C@H]1C(=O)O [AMOXICILLIN] | 45% | – | – | 6.8 ×10⁻⁶ cm2/s | 30 ×10⁻⁶ cm/s | – | –
Cc1cc(=O)n(-c2ccccc2)n1C [ANTIPYRINE] | 99% | 1.3 | – | 9.2 ×10⁻⁶ cm2/s | – | 2.07 ×10⁻⁴ cm/s | –
CC(C)NCC(O)COc1ccc(CC(N)=O)cc1 (stereo not given) [ATENOLOL] | – | – | – | 7.9 ×10⁻⁶ cm2/s | – | – | –
NC(CO)C(=O)NNCc1ccc(O)c(O)c1O (stereo not given) [BENSERAZIDE] | 70% | 6.19 | -1.78 | 8 ×10⁻⁶ cm2/s | 290 ×10⁻⁶ cm/s | – | –
Cn1c(=O)c2c(ncn2C)n(C)c1=O [CAFFEINE] | 98% | – | – | – | – | – | –
NC(=O)N1c2ccccc2C=Cc2ccccc21 [CARBAMAZEPINE] | 90% | – | – | 8.3 ×10⁻⁶ cm2/s | 430 ×10⁻⁶ cm/s | – | –
CC1=C(C(=O)O)N2C(=O)[C@@H](NC(=O)[C@H](N)c3ccccc3)[C@H]2SC1 [CEPHALEXIN ANHYDROUS] | – | – | – | 7 ×10⁻⁶ cm2/s | – | – | –
O=C(N[C@H](CO)[C@H](O)c1ccc([N+](=O)[O-])cc1)C(Cl)Cl [CHLORAMPHENICOL] | 82% | – | – | – | – | – | –
CN/C(=N/CCSCc1nc[nH]c1C)NC#N [CIMETIDINE] | 60% | 6.76 | – | 8.1 ×10⁻⁶ cm2/s | 26 ×10⁻⁶ cm/s | – | –
CN1CC(=O)NC1=N [CREATININE] | 80% | 4.66 | – | 11.6 ×10⁻⁶ cm2/s | 29 ×10⁻⁶ cm/s | – | -3
CNCCCN1c2ccccc2CCc2ccccc21 [DESIPRAMINE] | 70% | – | – | 7.9 ×10⁻⁶ cm2/s | 440 ×10⁻⁶ cm/s | – | –
OC[C@H]1OC(O)[C@H](O)[C@@H](O)[C@@H]1O (stereo not given in full) [DEXTROSE] | 100% | – | -0.67 | 9.4 ×10⁻⁶ cm2/s | 560 ×10⁻⁶ cm/s | – | –
O=C(O)Cc1ccccc1Nc1c(Cl)cccc1Cl [DICLOFENAC] | 54% | – | – | – | – | – | –
C[C@H]1O[C@@H](O[C@H]2[C@@H](O)C[C@H](O[C@H]3[C@@H](O)C[C@H](O[C@H]4CC[C@@]5(C)[C@H](CC[C@@H]6[C@@H]5C[C@@H](O)[C@]5(C)[C@@H](C7=CC(=O)OC7)CC[C@]65O)C4)O[C@@H]3C)O[C@@H]2C)C[C@H](O)[C@@H]1O [DIGOXIN] | 70% | – | – | – | – | – | –
C[C@H](N[C@@H](CCc1ccccc1)C(=O)O)C(=O)N1CCC[C@H]1C(=O)O [ENALAPRILAT ANHYDROUS] | 8% | 3.2 | – | 7 ×10⁻⁶ cm2/s | 10 ×10⁻⁶ cm/s | – | –
COc1cc([C@@H]2c3cc4c(cc3[C@@H](O[C@@H]3O[C@@H]5CO[C@@H](C)O[C@H]5[C@H](O)[C@H]3O)[C@H]3COC(=O)[C@H]23)OCO4)cc(OC)c1O [ETOPOSIDE] | 52% | – | – | – | – | – | –
O=C1OC2(c3ccc(O)cc3Oc3cc(O)ccc32)c2ccccc21 [FLUORESCEIN] | 99% | – | – | – | – | – | –
CC(C)n1c(/C=C/C(O)CC(O)CC(=O)O)c(-c2ccc(F)cc2)c2ccccc21 (stereo not given) [FLUVASTATIN] | 95% | – | – | 6.5 ×10⁻⁶ cm2/s | 238 ×10⁻⁶ cm/s | – | –
NS(=O)(=O)c1cc(C(=O)O)c(NCc2ccco2)cc1Cl [FUROSEMIDE] | – | – | – | 7.1 ×10⁻⁶ cm2/s | – | – | –
COC1=CC(=O)C[C@@H](C)[C@]12Oc1c(Cl)c(OC)cc(OC)c1C2=O [GRISEOFULVIN] | 95% | – | – | 6.9 ×10⁻⁶ cm2/s | 114 ×10⁻⁶ cm/s | – | –
NS(=O)(=O)c1cc2c(cc1Cl)NCNS2(=O)=O [HYDROCHLOROTHIAZIDE] | 55% | – | -0.03 | 7.5 ×10⁻⁶ cm2/s | 4 ×10⁻⁶ cm/s | – | –
CC(C)Cc1ccc(C(C)C(=O)O)cc1 (stereo not given) [IBUPROFEN] | 85% | – | – | – | – | – | –
COc1ccc2c(c1)c(CC(=O)O)c(C)n2C(=O)c1ccc(Cl)cc1 [INDOMETHACIN] | 99% | – | – | – | – | – | –

Structure (SMILES) | bioavailability [1] | pKa [2] | logP ([3]; read-out: logP) | Daq [4] | Papp (clinical) | permeability [5] | logP [3]
N=C(N)NCCCNC(=O)[C@@H]1CCCCN1C(=O)[C@@H](CC1CCCCC1)NCC(=O)O [INOGATRAN] | 5% | 1.6 | -0.6 | – | – | – | –
Cc1cc(NC(=O)C2=C(O)c3ccccc3S(=O)(=O)N2C)no1 [ISOXICAM] | 100% | – | – | – | – | – | –
CC(C(=O)O)c1cccc(C(=O)c2ccccc2)c1 (stereo not given) [KETOPROFEN] | – | – | 3.16 | 8 ×10⁻⁶ cm2/s | 840 ×10⁻⁶ cm/s | – | –
CC(C)C[C@H](N)C(=O)O [LEUCINE] | 100% | 2.38 | – | 10.9 ×10⁻⁶ cm2/s | 620 ×10⁻⁶ cm/s | – | –
N[C@@H](Cc1ccc(O)c(O)c1)C(=O)O [LEVODOPA] | 100% | 2.21 | -3 | 9 ×10⁻⁶ cm2/s | 340 ×10⁻⁶ cm/s | – | –
CCC[C@@H]1C[C@@H](C(=O)N[C@@H]([C@H]2O[C@H](SC)[C@H](O)[C@@H](O)[C@H]2O)[C@@H](C)O)N(C)C1 [LINCOMYCIN] | 25% | – | – | – | – | – | –
NCCCC[C@H](N[C@@H](CCc1ccccc1)C(=O)O)C(=O)N1CCC[C@H]1C(=O)O [LISINOPRIL ANHYDROUS] | 27% | 3.16 | -2.86 | – | – | – | –
CCCCc1nc(Cl)c(CO)n1Cc1ccc(-c2ccccc2-c2nn[nH]n2)cc1 [LOSARTAN] | 50% | 2.95 | 3.74 | 6.4 ×10⁻⁶ cm2/s | 114 ×10⁻⁶ cm/s | – | –
C[C@](N)(Cc1ccc(O)c(O)c1)C(=O)O [METHYLDOPA] | 26% | 2.21 | -3 | 8.8 ×10⁻⁶ cm2/s | 10 ×10⁻⁶ cm/s | – | –
COCCc1ccc(OCC(O)CNC(C)C)cc1 (stereo not given) [METOPROLOL] | – | – | – | 7.9 ×10⁻⁶ cm2/s | 90 ×10⁻⁶ cm/s | – | –
CC(C)(C)NCC(O)COc1cccc2c1CC(O)C(O)C2 (stereo not given) [NADOLOL] | 30% | – | – | – | – | – | –
COc1ccc2cc([C@H](C)C(=O)O)ccc2c1 [NAPROXEN] | – | – | – | 8.4 ×10⁻⁶ cm2/s | – | – | –
CC1COc2c(N3CCN(C)CC3)c(F)cc3c(=O)c(C(=O)O)cn1c23 (stereo not given) [OFLOXACIN] | 90% | – | – | – | – | – | –
N[C@@H](Cc1ccccc1)C(=O)O [PHENYLALANINE] | 100% | 2.2 | – | 9.8 ×10⁻⁶ cm2/s | 336 ×10⁻⁶ cm/s | – | –
CN1C(C(=O)Nc2ccccn2)=C(O)c2ccccc2S1(=O)=O [PIROXICAM] | 100% | – | – | 7.1 ×10⁻⁶ cm2/s | 665 ×10⁻⁶ cm/s | – | –
CC(C)NCC(O)COc1cccc2ccccc12 (stereo not given) [PROPRANOLOL] | 100% | – | – | 8 ×10⁻⁶ cm2/s | – | – | –
CCCc1cc(=O)[nH]c(=S)[nH]1 [PROPYLTHIOURACIL] | 85% | – | – | – | – | – | –
CNC(=C[N+](=O)[O-])NCCSCc1ccc(CN(C)C)o1 [RANITIDINE] | 50% | 2.11 | – | 7.3 ×10⁻⁶ cm2/s | 27.3 ×10⁻⁶ cm/s | – | –
O=C(O)c1ccccc1O [SALICYLIC ACID] | 100% | – | – | 10.6 ×10⁻⁶ cm2/s | 267 ×10⁻⁶ cm/s | – | –
CC(C)NCC(O)c1ccc(NS(C)(=O)=O)cc1 (stereo not given) [SOTALOL] | 95% | – | – | – | – | – | –
C[S+]([O-])CCCCN=C=S (stereo not given) [SULFORAPHANE] | 74% | – | 1.68 | 9.5 ×10⁻⁶ cm2/s | – | 18.7 ×10⁻⁴ cm/s | –
CC(C)(C)NCC(O)c1cc(O)cc(O)c1 (stereo not given) [TERBUTALINE] | – | 8.67 | -0.08 | 8.5 ×10⁻⁶ cm2/s | 30 ×10⁻⁶ cm/s | – | –
CC1=C(/C=C/C(C)=C/C=C/C(C)=C/C(=O)O)C(C)(C)CCC1 [TRETINOIN] | 90% | – | – | 7.5 ×10⁻⁶ cm2/s | 99 ×10⁻⁶ cm/s | – | –
COc1cc(Cc2cnc(N)nc2N)cc(OC)c1OC [TRIMETHOPRIM] | 98% | – | – | – | – | – | –
NC(N)=O [UREA] | – | – | -1.64 | 15.5 ×10⁻⁶ cm2/s | 140 ×10⁻⁶ cm/s | – | –
CC(C)[C@H](N)C(=O)OCCOCn1cnc2c(=O)[nH]c(N)nc21 [VALACYCLOVIR] | 80% | 7.4 | -1.04 | 7.2 ×10⁻⁶ cm2/s | 166 ×10⁻⁶ cm/s | – | –
O [WATER] | – | – | – | 26.7 ×10⁻⁶ cm2/s | 140 ×10⁻⁶ cm/s | – | –
